Activity calls are given as the source filed them.
Key:
Tumor necrosis factor = Tumor necrosis factor (Homo sapiens, UniProt P01375); test: analog potency on TNFa NF-kB signaling – cell-based, revised, SAR follow-up (AID 2337); format: functional
[1] = molecular target: T1, Nucleotide-binding oligomerization domain-containing protein 1 (Homo sapiens, UniProt Q9Y239); test: blockers of NOD1 pathway activity – revised, SAR follow-up (AID 2333); format: functional
T1 sequence (Q9Y239 whole entry): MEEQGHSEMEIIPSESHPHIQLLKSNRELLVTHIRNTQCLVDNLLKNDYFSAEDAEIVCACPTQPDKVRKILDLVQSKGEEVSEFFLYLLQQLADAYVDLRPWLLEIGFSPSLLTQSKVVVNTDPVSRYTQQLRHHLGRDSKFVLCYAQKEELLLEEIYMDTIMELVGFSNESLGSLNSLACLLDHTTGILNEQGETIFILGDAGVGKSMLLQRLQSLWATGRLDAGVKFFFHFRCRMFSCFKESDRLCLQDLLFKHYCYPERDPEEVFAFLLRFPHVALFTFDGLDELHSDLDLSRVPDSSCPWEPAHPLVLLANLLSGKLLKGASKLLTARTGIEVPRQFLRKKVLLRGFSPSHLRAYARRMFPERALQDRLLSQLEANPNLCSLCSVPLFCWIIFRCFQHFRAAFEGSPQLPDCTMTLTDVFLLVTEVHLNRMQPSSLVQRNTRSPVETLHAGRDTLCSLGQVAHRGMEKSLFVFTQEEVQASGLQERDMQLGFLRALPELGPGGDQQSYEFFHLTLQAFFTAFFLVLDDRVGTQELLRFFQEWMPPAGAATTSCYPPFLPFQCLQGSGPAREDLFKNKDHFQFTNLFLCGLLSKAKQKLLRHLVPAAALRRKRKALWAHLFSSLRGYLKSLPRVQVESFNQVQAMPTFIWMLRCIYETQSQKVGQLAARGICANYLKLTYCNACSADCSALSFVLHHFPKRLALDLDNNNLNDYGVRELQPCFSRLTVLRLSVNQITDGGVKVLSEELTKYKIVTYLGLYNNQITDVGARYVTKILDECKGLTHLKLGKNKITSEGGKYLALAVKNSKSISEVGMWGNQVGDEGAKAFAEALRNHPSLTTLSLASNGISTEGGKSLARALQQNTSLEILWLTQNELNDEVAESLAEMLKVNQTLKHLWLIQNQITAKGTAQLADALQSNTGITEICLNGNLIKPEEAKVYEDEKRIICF

[2] = molecular target: T2, Nucleotide-binding oligomerization domain-containing protein 2 (Homo sapiens, UniProt Q9HC29); test: PubChem AID 2334; format: functional
T2 sequence (Q9HC29 whole entry, the tested form may be a part): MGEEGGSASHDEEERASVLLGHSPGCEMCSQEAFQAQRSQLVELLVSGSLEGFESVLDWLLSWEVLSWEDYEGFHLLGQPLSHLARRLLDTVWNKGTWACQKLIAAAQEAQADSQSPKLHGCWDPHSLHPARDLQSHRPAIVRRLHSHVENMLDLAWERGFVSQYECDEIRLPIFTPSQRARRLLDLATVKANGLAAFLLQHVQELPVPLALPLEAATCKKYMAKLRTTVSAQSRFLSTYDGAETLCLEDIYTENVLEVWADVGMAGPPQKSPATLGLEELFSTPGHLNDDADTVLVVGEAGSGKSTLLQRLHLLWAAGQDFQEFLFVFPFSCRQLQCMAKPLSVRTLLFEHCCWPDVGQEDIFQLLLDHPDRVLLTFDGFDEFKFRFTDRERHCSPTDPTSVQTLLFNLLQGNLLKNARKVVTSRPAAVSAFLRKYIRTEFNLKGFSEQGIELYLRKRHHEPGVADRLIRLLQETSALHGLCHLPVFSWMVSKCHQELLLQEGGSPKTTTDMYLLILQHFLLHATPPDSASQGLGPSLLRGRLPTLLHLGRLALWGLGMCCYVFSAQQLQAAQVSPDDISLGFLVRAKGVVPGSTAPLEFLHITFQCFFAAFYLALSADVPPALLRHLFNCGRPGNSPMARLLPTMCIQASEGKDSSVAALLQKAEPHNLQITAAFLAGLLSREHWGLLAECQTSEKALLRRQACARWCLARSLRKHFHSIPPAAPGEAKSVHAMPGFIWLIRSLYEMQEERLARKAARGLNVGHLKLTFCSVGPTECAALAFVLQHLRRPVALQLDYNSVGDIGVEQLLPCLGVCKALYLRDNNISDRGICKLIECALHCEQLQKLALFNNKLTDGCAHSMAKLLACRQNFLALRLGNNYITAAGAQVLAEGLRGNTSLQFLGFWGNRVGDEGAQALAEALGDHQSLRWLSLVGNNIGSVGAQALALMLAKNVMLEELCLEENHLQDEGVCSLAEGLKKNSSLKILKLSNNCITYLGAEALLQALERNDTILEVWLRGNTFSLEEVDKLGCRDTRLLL

HEK293 [3] = test: cells; details: Homo sapiens
[4] = DRD fibroblast viability loss – cell-based, non-viral oncogenic, luminescence, dose response (AID 1934); format: functional; details: Homo sapiens
BJ [5] = test: cells; format: functional, cell-based; details: Homo sapiens
BJ [6] = test: BJ-TERT fibroblast viability loss – cell-based, RAS-independent, luminescence, dose response (AID 1933); format: functional; details: Homo sapiens
[7] = molecular target: T3, Voltage-gated N-type calcium channel alpha-1B subunit/Amyloid beta A4 precursor protein-binding family A member 1 (Homo sapiens, UniProt Q00975+Q02410); format: protein assay
T3 sequence (Q00975 whole entry): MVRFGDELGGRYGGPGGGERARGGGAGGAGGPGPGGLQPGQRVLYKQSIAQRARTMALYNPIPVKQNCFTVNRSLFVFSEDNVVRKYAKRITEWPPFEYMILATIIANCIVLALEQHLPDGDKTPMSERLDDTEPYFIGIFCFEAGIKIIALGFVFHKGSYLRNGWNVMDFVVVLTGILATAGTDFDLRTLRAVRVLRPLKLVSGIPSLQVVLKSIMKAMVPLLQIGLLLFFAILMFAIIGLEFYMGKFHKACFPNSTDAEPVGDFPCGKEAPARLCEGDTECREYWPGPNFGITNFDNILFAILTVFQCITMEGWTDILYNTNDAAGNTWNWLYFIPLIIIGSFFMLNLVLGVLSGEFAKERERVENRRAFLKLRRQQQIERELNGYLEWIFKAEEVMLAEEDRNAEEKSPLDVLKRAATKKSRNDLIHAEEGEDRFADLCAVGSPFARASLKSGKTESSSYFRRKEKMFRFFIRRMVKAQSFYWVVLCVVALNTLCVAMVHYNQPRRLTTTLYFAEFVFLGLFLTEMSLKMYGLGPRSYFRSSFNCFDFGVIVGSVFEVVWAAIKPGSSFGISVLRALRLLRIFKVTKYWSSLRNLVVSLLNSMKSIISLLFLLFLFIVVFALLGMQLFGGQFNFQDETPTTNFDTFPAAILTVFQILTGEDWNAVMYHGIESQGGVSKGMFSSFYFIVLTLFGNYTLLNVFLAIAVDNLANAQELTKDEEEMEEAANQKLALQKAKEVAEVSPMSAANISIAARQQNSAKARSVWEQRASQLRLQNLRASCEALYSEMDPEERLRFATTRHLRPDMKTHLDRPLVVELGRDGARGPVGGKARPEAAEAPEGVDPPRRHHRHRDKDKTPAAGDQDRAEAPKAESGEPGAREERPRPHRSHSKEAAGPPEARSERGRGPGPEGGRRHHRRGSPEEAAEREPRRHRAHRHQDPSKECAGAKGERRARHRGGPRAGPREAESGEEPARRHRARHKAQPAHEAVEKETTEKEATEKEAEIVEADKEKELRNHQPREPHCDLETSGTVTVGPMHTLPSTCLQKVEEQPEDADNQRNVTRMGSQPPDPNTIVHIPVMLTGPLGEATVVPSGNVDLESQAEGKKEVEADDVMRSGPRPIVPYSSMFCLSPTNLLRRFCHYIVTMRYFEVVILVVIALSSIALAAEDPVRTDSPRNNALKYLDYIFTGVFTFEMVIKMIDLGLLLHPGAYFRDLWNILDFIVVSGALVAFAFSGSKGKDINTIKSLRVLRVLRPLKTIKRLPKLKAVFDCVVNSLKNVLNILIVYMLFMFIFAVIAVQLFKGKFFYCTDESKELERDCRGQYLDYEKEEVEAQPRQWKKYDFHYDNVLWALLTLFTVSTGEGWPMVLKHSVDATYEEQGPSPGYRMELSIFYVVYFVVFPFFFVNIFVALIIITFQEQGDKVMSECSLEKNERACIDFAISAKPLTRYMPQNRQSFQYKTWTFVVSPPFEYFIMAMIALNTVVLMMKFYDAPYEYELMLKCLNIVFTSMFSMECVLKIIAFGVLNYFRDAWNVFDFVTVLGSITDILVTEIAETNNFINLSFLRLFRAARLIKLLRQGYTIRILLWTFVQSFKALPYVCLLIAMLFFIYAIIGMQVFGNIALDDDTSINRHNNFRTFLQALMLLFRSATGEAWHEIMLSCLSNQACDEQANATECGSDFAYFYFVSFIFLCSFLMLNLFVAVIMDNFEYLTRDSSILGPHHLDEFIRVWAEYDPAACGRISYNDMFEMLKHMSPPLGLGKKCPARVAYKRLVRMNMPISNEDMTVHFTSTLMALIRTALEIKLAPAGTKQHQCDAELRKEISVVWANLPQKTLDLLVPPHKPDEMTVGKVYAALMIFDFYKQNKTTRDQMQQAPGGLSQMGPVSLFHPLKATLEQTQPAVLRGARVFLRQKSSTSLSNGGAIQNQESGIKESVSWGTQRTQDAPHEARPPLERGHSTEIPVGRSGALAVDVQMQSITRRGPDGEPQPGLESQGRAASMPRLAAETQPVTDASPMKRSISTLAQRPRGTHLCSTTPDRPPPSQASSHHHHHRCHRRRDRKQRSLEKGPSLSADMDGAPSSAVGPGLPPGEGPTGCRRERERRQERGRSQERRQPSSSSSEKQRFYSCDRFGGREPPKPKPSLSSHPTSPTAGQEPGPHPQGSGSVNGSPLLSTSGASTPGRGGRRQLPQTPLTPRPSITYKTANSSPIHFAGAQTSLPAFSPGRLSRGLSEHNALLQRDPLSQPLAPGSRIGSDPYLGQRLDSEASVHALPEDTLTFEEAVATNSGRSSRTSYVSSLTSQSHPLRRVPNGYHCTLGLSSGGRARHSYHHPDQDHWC
T3 sequence (Q02410 whole entry): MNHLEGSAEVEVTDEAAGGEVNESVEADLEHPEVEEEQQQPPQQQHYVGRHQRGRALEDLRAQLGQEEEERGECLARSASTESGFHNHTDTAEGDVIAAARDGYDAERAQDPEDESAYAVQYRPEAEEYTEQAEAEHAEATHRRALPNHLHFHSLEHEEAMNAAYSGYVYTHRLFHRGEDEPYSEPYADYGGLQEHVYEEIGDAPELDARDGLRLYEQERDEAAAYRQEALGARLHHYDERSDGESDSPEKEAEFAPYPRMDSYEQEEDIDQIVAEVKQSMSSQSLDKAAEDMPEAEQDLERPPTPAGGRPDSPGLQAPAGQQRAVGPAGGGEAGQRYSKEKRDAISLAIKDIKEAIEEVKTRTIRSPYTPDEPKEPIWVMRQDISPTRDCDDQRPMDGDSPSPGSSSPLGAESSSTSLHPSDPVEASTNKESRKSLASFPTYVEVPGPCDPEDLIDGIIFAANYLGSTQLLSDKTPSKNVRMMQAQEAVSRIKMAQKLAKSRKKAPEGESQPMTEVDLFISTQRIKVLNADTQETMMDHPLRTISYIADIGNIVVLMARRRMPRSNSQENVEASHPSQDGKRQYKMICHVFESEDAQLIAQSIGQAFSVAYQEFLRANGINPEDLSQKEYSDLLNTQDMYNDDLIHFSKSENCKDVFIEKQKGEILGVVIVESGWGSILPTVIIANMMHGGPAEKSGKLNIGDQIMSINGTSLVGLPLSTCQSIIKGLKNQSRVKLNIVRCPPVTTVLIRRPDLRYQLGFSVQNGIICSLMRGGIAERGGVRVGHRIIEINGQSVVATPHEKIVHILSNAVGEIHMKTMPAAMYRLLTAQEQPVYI

BJ [8] = test: BJ-TERT-LT-ST fibroblast viability loss – cell-based, RAS-independent, luminescence, dose response (AID 1935); format: functional; details: Homo sapiens;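 note: BJ fibroblasts immortalized with TERT plus LT and ST oncogenes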
Estrogen receptor = molecular target: T4, Estrogen receptor (Homo sapiens, UniProt P03372);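 note: potency for inhibiting coactivator peptide recruitment to the receptor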
T4 sequence (P03372 whole entry): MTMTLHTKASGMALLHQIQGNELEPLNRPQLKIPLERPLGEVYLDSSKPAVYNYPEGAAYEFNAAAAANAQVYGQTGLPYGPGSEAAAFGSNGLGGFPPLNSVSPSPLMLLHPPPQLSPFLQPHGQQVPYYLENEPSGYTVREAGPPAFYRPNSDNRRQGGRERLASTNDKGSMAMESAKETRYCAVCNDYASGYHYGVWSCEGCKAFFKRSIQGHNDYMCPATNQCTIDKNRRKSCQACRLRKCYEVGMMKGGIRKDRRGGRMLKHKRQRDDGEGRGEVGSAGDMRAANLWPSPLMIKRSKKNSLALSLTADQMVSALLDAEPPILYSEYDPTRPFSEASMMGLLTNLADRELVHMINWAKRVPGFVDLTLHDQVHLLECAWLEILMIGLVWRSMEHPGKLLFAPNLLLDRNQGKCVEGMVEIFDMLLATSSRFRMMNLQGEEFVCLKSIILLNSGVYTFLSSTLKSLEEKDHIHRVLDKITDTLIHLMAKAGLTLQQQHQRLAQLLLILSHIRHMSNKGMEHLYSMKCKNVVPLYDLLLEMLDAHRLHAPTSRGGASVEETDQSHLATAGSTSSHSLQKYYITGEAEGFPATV

[9] = molecular target: T3, Voltage-gated N-type calcium channel alpha-1B subunit/Amyloid beta A4 precursor protein-binding family A member 1; format: protein assay; remark: listed apart in the source
[10] = molecular target: T5, Heat shock factor protein 1 (Mus musculus, UniProt P38532); test: enhancement of HSF1-driven luciferase signal – cell-based, NIH3T3, luminescence, dose retest, confirmation (AID 435004); format: functional;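 note: stress induced by proteasome inhibitor MG132 added 30 min after compound; luciferase reporter driven by HSF1 response element in NIH3T3 cells; actives raise luminescence as potentiators of the MG132 stress response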
T5 sequence (P38532 whole entry): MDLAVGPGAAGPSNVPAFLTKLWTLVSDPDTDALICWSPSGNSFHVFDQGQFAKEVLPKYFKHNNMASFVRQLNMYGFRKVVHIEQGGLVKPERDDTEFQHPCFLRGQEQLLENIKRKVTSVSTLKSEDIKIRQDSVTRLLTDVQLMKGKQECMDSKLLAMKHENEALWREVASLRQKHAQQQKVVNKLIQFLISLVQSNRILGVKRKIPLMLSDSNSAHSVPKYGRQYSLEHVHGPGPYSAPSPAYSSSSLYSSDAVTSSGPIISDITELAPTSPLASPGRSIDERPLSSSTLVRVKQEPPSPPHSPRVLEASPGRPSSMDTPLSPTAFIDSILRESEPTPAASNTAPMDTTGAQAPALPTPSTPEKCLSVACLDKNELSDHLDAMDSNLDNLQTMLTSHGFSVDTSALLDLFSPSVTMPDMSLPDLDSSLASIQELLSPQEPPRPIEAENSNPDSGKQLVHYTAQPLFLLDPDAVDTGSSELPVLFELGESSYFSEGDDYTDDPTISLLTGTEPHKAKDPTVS

Bcl-2-like protein 10 = molecular target: T6, Bcl-2-like protein 10 (Homo sapiens, UniProt Q9HD36); test: Bcl-B/TR3 peptide binding disruption – biochemical, fluorescence polarization, FITC-TR3 peptide, selectivity assay for Bfl-1 inhibitor project, primary screen (AID 748);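 note: fluorescence polarization from a fluorescein-labelled TR3 peptide binding purified Bcl-B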
T6 sequence (Q9HD36 whole entry): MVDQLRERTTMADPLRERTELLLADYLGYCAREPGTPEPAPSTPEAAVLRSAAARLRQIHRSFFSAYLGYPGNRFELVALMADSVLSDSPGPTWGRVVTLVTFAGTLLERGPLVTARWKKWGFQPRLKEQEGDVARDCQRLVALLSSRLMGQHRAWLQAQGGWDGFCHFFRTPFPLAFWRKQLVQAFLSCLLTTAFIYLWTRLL

Estrogen receptor beta [11] = molecular target: T7, Estrogen receptor beta (Homo sapiens, UniProt Q92731);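 note: recombinant ER-beta bound to coactivator SRC1 peptide in presence of estradiol agonist; inhibitors block coactivator peptide binding and lower the FRET signal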
T7 sequence (Q92731 whole entry): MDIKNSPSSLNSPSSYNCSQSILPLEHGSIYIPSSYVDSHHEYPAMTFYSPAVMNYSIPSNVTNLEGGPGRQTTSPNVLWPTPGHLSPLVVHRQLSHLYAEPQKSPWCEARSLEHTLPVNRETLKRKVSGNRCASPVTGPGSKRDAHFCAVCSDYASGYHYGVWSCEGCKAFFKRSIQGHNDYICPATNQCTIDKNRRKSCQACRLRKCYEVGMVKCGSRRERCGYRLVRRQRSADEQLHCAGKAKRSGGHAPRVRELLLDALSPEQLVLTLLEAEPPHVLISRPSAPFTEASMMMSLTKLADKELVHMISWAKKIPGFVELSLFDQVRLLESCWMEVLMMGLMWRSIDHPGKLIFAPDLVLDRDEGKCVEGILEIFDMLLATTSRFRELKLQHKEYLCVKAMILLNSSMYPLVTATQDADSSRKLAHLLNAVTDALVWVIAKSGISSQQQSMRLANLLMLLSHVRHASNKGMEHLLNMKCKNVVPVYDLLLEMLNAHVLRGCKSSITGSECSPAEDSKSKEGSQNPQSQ

[12] = molecular target: Ras and Rab interactor 1/Tyrosine-protein kinase ABL1 (Homo sapiens, UniProt P00519+Q13671); format: functional;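 note: biochemical TR-FRET dose-response test measuring inhibition of binding between Rin1 and Abl proteins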
Estrogen receptor beta [13] = molecular target: T7, Estrogen receptor beta; test: blockers of SRC-3 recruitment to ERβ – biochemical, ELISA, streptavidin-HRP readout, orthogonal assay, confirmation (AID 1060)
[14] = molecular target: T2, Nucleotide-binding oligomerization domain-containing protein 2; test: inhibition of NOD2-driven NF-kB reporter – cell-based, luminescence, uHTS, HEK293 (AID 1566); format: functional
HEK293 [15] = test: cells; format: functional, cell-based; details: Homo sapiens
HEK293 [16] = test: inhibition of NOD1-driven NF-kB reporter – cell-based, luminescence, uHTS, primary screen (AID 1578); format: functional; details: Homo sapiens
HEK293 [17] = test: cells; format: functional, cell-based; details: Homo sapiens; remark: listed apart in the source
HEK293 [18] = test: cells; format: functional, cell-based; details: Homo sapiens; remark: listed apart in the source
Nonstructural protein 1 = Nonstructural protein 1 (Influenza A virus, UniProt Q194T2); format: functional, Influenza A virus (A/California/07/2009(H1N1))
HEK293 [19] = test: NOD2 signaling inhibitors in MDP-stimulated cells, cell-based, uHTS, luminescence (AID 2001); format: functional; details: Homo sapiens
[20] = molecular target: T5, Heat shock factor protein 1; test: decrease of HSF1-responsive luciferase luminescence – cell-based, NIH3T3, dose retest, confirmation (AID 2382); format: functional;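 note: NIH3T3 fibroblasts with HSF1-driven luciferase reporter stressed by proteasome inhibitor MG132; luminescence from HSF1-driven luciferase expression after 8 hours of MG132 stress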
H9c2 = test: cells; format: functional, cell-based; details: Rattus norvegicus, H9c2, Myocardium;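 note: confirmatory concentration-response retest of ultra-high-throughput screening hits for modulation of myocardial damage; cell death induced by hydrogen peroxide oxidative stress; compound pretreatment for 60 min then peroxide exposure for 2 h; potency is for protecting the cells against peroxide damage rather than for killing them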
Hexokinase HKDC1 = molecular target: T8, Hexokinase HKDC1 (Homo sapiens, UniProt Q2TB90); test: inhibition of HKDC1 glucose phosphorylation – biochemical, W721R variant, dose response (AID 504729); format: functional
T8 sequence (Q2TB90 whole entry): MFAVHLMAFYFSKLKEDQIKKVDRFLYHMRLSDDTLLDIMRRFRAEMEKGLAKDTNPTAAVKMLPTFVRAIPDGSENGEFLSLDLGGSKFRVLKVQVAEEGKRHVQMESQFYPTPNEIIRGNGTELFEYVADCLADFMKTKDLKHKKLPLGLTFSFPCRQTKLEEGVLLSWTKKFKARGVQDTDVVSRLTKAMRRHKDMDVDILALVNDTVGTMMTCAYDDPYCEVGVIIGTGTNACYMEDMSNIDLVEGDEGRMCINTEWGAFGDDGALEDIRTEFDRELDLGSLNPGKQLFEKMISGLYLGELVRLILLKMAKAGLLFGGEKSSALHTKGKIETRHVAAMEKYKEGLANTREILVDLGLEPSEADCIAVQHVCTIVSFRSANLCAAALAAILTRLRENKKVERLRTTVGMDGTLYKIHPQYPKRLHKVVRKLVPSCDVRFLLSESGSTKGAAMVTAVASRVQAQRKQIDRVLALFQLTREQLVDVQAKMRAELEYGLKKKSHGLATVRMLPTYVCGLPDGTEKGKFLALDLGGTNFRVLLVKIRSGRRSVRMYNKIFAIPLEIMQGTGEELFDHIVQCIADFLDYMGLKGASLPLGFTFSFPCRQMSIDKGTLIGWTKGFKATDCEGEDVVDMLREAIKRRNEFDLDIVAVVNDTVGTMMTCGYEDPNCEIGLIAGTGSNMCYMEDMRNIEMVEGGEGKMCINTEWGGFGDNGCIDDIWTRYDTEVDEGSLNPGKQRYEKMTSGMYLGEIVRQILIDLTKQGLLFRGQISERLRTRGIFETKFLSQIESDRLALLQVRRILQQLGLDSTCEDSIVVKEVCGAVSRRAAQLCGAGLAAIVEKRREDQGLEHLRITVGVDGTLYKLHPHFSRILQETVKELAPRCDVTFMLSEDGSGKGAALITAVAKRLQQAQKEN

Chain of Tumor necrosis factor (P01375 whole entry, the tested form may be a part): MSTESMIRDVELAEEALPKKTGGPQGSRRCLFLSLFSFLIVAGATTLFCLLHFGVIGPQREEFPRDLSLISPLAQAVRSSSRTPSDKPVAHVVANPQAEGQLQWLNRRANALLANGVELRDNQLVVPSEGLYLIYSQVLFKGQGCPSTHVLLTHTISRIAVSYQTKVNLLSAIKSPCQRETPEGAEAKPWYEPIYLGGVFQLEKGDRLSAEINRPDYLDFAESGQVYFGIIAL

For Cc1cc(C(=O)NC2CCCc3c2cnn3-c2ccccc2F)n(C)n1 (stereo unspecified), the IC50 (Tumor necrosis factor) was > 20 µM (inactive), the IC50 [1] was 0.146 µM (active) and the IC50 [2] was > 20 µM (inactive). For the same compound, the IC50 (HEK293 [3]) was > 20 µM (inactive).
In the case of Cc1c(C(=O)OCC2CCCO2)[nH]c2c1C(=O)CC(c1ccco1)C2 (stereo unspecified), the EC50 [4] is reported as 21.8 µM (active), the EC50 (BJ [5]) is reported as 36.9 µM (active) and the EC50 (BJ [6]) is reported as 12.2 µM (active). The IC50 [7] was 21.9 µM (active), the EC50 (BJ [8]) was 23.6 µM (active) and the IC50 (Estrogen receptor) was 32.1 µM (not active). For the same compound, the IC50 [9] was > 50 µM (inactive), the EC50 [10] was > 260 µM (inactive) and the IC50 (Bcl-2-like protein 10) was 23.8 µM (active).
With Cc1ccc(-n2c(SCc3cc(=O)n4ccsc4n3)nnc2-c2cccnc2)c(C)c1 the IC50 (Estrogen receptor beta [11]) was > 50 µM (not active), the IC50 [12] was 19.6 µM (inactive) and the IC50 (Estrogen receptor beta [13]) was 0.721 µM (not active). The IC50 (Bcl-2-like protein 10) was > 100 µM (inactive).
With N#CC(c1ccccc1)c1ccc2c(C(F)(F)F)cc(C(F)(F)F)nc2n1 (stereo unspecified) the IC50 (Tumor necrosis factor) was 5.88 µM (active), the EC50 [14] was 13.4 µM (active) and the IC50 (HEK293 [15]) was > 20 µM (inactive). For the same compound, the EC50 (HEK293 [16]) was 4.36 µM (active), the IC50 [1] was 3.71 µM (active) and the IC50 (HEK293 [17]) was 15.4 µM (active). For the same compound, the IC50 (HEK293 [18]) was > 20 µM (inactive), the IC50 [2] was 3.99 µM (active) and the IC50 (Nonstructural protein 1) was 21.3 µM (active). For the same compound, the IC50 (HEK293 [3]) was > 20 µM (inactive) and the IC50 (HEK293 [19]) was > 20 µM (inactive).
With CCOc1ccccc1Nc1nnc(SCc2nnc(-c3cc(OC)c(OC)c(OC)c3)o2)s1 the EC50 [20] was 21.7 µM (active), the IC50 (H9c2) was > 79 µM (inactive) and the IC50 (Hexokinase HKDC1) was 18.8 µM (active).

From ChEMBL document CHEMBL1201862, “PubChem BioAssay data set” (2004)
